According to patent publication US11071789B2, “Pharmaceutical prodrugs and methods of their preparation and use” (CEPHALON, INC., priority 2016, dated 2021):
Like-named read-outs stand apart in the source and are kept apart here.

Assays:
[1] = Dox-Hyd-C12 nanoparticles: plasma, liver and lung levels in female SCID mice; settings: Dox-Hyd-C12 nanoparticle study, about 2.2 mg-eq/kg IV
[2] = Dox-Hyd-C18 nanoparticles: plasma, liver and lung levels in female SCID mice; assay type: in vivo; settings: about 1.8 mg-eq/kg IV
[3] = female, SCID, mouse, in vivo, iv
[4] = SCID, mouse, in vivo, iv

Structure (SMILES) | doxorubicin from hydrolysis of prodrug in tissue [1] | doxorubicin from hydrolysis of prodrug in tissue [2] | time nanoparticles circulate in plasma [2] | AUC0-t [3] [ng·h/mL] | AUC0-∞ [3] [ng·h/mL] | tmax [3] [h] | tmax [4] [min]
CCCCCCCCCCCCCCCCCC(=O)NN=C(CO)[C@]1(O)Cc2c(O)c3c(c(O)c2[C@@H](O[C@H]2C[C@H](N)[C@H](O)[C@H](C)O2)C1)C(=O)c1c(OC)cccc1C3=O [Dox-Hyd-C18] | detected in liver and lung tissue | detected in liver and lung tissue | up to 24 hours |  |  |  | 
Cn1c(CCCC(=O)O)nc2cc(N(CCCl)CCCl)ccc21 [Bendamustine, bendamustine] |  |  |  | 566 | 589 | 0083 | 4.98
